Data taken from PMC5956890 (Journal of medicinal chemistry, 2017).
Entries after “also recorded” stand apart in the source; their conditions may differ.

Legend:
PPARδ [1] = biological target: T1, PPARδ (Homo sapiens, UniProt Q03181); assay: TR-FRET PPARδ coactivator assay; format: biochemical; details: compound alone
T1 sequence (Q03181 211-439 limits assumed): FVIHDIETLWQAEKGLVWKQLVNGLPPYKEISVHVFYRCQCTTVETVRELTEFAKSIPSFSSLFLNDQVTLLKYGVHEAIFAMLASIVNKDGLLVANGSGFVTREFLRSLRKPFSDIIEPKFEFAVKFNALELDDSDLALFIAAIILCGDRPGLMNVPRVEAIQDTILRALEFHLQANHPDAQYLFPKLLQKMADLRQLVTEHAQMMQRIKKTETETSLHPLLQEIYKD

[2] = tested on: STZ-induced diabetic C57BL/6J mice; assay: STZ-induced diabetes mouse model; format: in vivo; details: oral 20 mg/kg for 5 days, male C57BL/6J
PPARδ [3] = biological target: T2, PPARδ (Homo sapiens, UniProt Q03181); assay: TR-FRET competitive binding assay PPARδ; details: concentration-response
T2 sequence (Q03181 1-441): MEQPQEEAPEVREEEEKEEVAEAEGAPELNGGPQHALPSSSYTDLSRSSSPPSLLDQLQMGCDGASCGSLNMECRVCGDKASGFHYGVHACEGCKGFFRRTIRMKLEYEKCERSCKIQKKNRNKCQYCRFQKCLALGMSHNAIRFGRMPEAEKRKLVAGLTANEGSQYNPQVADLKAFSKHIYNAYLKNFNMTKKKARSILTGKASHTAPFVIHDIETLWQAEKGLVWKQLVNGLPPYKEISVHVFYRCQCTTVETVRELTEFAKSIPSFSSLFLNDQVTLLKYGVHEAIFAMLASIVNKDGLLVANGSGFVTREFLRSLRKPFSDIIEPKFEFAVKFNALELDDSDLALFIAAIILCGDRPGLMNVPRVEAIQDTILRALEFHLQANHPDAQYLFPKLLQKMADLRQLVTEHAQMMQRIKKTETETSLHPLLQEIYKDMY

PPARδ [4] = biological target: T1, PPARδ; assay: TR-FRET PPARδ corepressor assay; format: biochemical; details: SMRT-ID2 peptide
[5] = tested on: ANGPTL4 and PDK4 gene transcription; assay: Q-RT-PCR of ANGPTL4 and PDK4 mRNA in hBM-MSCs; format: cell-based, human; details: 3rd day after induction of adipogenesis
PPARα = biological target: T3, PPARα (Homo sapiens, UniProt Q07869); assay: TR-FRET competitive binding assay PPARα; details: up to 20 µM
T3 sequence (Q07869 200-468 limits assumed): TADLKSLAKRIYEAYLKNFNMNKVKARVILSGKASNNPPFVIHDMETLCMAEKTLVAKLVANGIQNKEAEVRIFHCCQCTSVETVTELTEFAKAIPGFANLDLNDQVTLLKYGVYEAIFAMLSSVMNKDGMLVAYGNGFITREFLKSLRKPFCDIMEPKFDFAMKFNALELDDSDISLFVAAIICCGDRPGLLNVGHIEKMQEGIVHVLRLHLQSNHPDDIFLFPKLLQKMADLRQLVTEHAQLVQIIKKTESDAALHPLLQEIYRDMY

PPARγ [6] = biological target: T4, PPARγ (Homo sapiens, UniProt P37231); assay: luciferase-reporter PPARγ transactivation assay in CV-1 cells; format: cell-based; details: 30 µM
T4 sequence (P37231 1-505): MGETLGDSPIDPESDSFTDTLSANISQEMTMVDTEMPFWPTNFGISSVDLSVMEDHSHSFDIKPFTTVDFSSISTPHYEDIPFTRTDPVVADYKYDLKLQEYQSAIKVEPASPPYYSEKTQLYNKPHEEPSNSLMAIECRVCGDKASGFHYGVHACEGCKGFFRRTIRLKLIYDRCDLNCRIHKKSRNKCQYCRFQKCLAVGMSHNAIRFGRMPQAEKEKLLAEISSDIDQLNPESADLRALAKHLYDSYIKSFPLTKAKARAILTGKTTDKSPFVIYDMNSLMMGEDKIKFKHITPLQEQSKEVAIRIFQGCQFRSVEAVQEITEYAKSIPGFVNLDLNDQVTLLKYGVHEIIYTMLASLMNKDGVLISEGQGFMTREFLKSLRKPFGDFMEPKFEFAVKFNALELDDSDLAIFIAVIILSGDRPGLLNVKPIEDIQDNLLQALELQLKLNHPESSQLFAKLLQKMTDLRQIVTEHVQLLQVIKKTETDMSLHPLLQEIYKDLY

hBM-MSCs = assay: adiponectin production during adipogenesis in hBM-MSCs; details: 20 µM
PPARγ [7] = biological target: T5, PPARγ (Homo sapiens, UniProt P37231); assay: TR-FRET competitive binding assay PPARγ; details: concentration-response
T5 sequence (P37231 235-505 limits assumed): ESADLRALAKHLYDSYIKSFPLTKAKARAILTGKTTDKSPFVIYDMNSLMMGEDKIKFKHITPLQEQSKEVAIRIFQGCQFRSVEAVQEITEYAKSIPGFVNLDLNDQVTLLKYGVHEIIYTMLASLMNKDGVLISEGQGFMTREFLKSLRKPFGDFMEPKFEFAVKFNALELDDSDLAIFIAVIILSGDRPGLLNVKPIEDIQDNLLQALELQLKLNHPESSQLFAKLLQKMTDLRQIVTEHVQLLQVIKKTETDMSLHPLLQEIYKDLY

## O[C@@H]1[C@H](O)CS[C@H]1n1cnc2c(NCc3cccc(I)c3)nc(Cl)nc21 [Compound 3a, (2R,3R,4S)-2-(2-Chloro-6-((3-iodobenzyl)amino)-9H-purin-9-yl)tetrahydrothiophene-3,4-diol]
PPARδ [1]
  recruitment of labeled coactivator peptide to PPARδ: no effect on the recruitment of the labeled coactivator peptide
[2]
  serum lactate levels: tended to decrease the serum lactate levels
  serum triglyceride levels: downregulated serum triglyceride levels
[2]; 20 mg/kg
  serum glucose levels: significantly decreased serum glucose levels; also recorded: dose-dependent
PPARδ [3]
  PPARδ binding activity: maximal PPARδ binding activity
PPARδ [4]
  interaction between PPARδ and corepressor peptide: promotion of the interaction between PPARδ and corepressor peptide
[5]
  ANGPTL4 mRNA level: did not affect ANGPTL4 and PDK4 mRNA levels
  PDK4 mRNA level: did not affect ANGPTL4 and PDK4 mRNA levels
PPARα
  replacement of labeled PPARα ligand binding: ≤ 50%
PPARγ [6]
  PPARγ transactivation compared to troglitazone: did not achieve maximal PPARγ transactivation activity
hBM-MSCs
  rank as promoter of adipogenesis among tested A3 AR agonists and antagonists: most potent promoter of adipogenesis
PPARγ [7]
  PPARγ binding activity: significant competitive binding activity
